Measurements: patent US6737383B1, “Herbicidal oxadiazolidines” (priority 1999, dated 2004)

How the values were obtained:
bedstraw = assay: Test B pre/postemergence bedstraw; assay type: in vivo, Galium aparine
How it was run: (§1)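 Response is a visual 0-to-10 score relative to untreated plants, where 0 means no effect and 10 means complete control, taken twelve to sixteen days after application. Treatments went onto soil at planting and onto foliage of 1- to 4-leaf plants, using a surfactant-containing non-phytotoxic solvent.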

blackgrass = assay: Test B pre/postemergence blackgrass; assay type: in vivo, Alopecurus myosuroides
How it was run: as §1

surinam grass = assay: Test B pre/postemergence surinam grass; assay type: in vivo, Brachiaria decumbens
How it was run: as §1

cocklebur = assay: Test B pre/postemergence cocklebur; assay type: in vivo, Xanthium strumarium
How it was run: as §1

corn = assay: Test B pre/postemergence corn; assay type: in vivo, Zea mays
How it was run: as §1

crabgrass = assay: Test B pre/postemergence crabgrass; assay type: in vivo, Digitaria sanguinalis
How it was run: as §1

giant foxtail = assay: Test B pre/postemergence giant foxtail; assay type: in vivo, Setaria faberii
How it was run: as §1

morningglory = assay: Test B pre/postemergence morningglory; assay type: in vivo, Ipomoea hederacea
How it was run: as §1

pigweed = assay: Test B pre/postemergence pigweed; assay type: in vivo, Amaranthus retroflexus
How it was run: as §1

rape = assay: Test B pre/postemergence rape; assay type: in vivo, Brassica napus
How it was run: as §1

soybean = assay: Test B pre/postemergence soybean; assay type: in vivo, Glycine max
How it was run: as §1

sugar beet = assay: Test B pre/postemergence sugar beet; assay type: in vivo, Beta vulgaris
How it was run: as §1

velvetleaf = assay: Test B pre/postemergence velvetleaf; assay type: in vivo, Abutilon theophrasti
How it was run: as §1

wheat = assay: Test B pre/postemergence wheat; assay type: in vivo, Triticum aestivum
How it was run: as §1

wild oat = assay: Test B pre/postemergence wild oat; assay type: in vivo, Avena fatua
How it was run: as §1

purple nutsedge = assay: Test B pre/postemergence purple nutsedge; assay type: in vivo, Cyperus rotundus
How it was run: as §1

[1] = Postemergence, Rate 62 g/ha, scale 0 to 10, 0 is no effect, 10 is complete control
[2] = Preemergence, Rate 125 g/ha, scale of 0 to 10 where 0 is no effect and 10 is complete control
[3] = Preemergence, Rate 250 g/ha, scale 0 (no effect) to 10 (complete control)
[4] = Rate 62 g/ha, Preemergence, scale 0 to 10
[5] = Rate 500 g/ha, Preemergence, scale 0 to 10 (0 no effect, 10 complete control)
[6] = Postemergence, Rate 125 g/ha, scale of 0 to 10 where 0 is no effect and 10 is complete control
[7] = Rate 250 g/ha, Postemergence, scale 0 to 10, 0 is no effect, 10 is complete control
[8] = Rate 500 g/ha, Postemergence, scale 0 to 10, 0 is no effect, 10 is complete control

In the case of `CC(C)N(C(=O)n1oc(=O)n(C(C)C2=NOCC2)c1=O)c1ccc(Cl)cc1` (racemic) [Compound 759], the “Plant response rating, Bedstraw” value (bedstraw; [1]) is reported as 0, the “Plant response rating, Bedstraw” value (bedstraw; [2]) is reported as 0 and the “Bedstraw plant response rating” value (bedstraw; [3]) is reported as 0. The “Bedstraw plant response rating” value (bedstraw; [4]) was 0, the “Bedstraw plant response rating” value (bedstraw; [5]) was 0 and the “Plant response rating, Blackgrass” value (blackgrass; [1]) was 4. For the same compound, the “Blackgrass plant response rating” value (blackgrass; [6]) was 5, the “Plant response rating, Blackgrass” value (blackgrass; [2]) was 5 and the “Blackgrass plant response rating” value (blackgrass; [3]) was 5. The “Blackgrass plant response rating” value (blackgrass; [4]) was 4, the “Blackgrass plant response rating” value (blackgrass; [7]) was 7 and the “Blackgrass plant response rating” value (blackgrass; [8]) was 8. The “Blackgrass plant response rating” value (blackgrass; [5]) was 8, the “Plant response rating, B. signalgrass” value (surinam grass; [1]) was 0 and the “B. signalgrass plant response rating” value (surinam grass; [6]) was 3. For the same compound, the “B. signalgrass plant response rating” value (surinam grass; Preemergence, Rate 62 g/ha, scale of 0 to 10 where 0 is no effect and 10 is complete control) was 3, the “Plant response rating, B. signalgrass” value (surinam grass; [2]) was 3 and the “B. signalgrass plant response rating” value (surinam grass; [3]) was 8. For the same compound, the “B. signalgrass plant response rating” value (surinam grass; [7]) was 6, the “B. signalgrass plant response rating” value (surinam grass; [8]) was 7 and the “B. signalgrass plant response rating” value (surinam grass; [5]) was 8. For the same compound, the “Plant response rating, Cocklebur” value (cocklebur; [1]) was 0, the “Cocklebur plant response rating” value (cocklebur; [6]) was 0 and the “Plant response rating, Cocklebur” value (cocklebur; [2]) was 0. For the same compound, the “Cocklebur plant response rating” value (cocklebur; [3]) was 0, the “Cocklebur plant response rating” value (cocklebur; [4]) was 0 and the “Cocklebur plant response rating” value (cocklebur; [7]) was 1. For the same compound, the “Cocklebur plant response rating” value (cocklebur; [8]) was 2, the “Cocklebur plant response rating” value (cocklebur; [5]) was 0 and the “Plant response rating, Corn” value (corn; [1]) was 0. The “Corn plant response rating” value (corn; [6]) was 0, the “Plant response rating, Corn” value (corn; [2]) was 0 and the “Corn plant response rating” value (corn; [3]) was 0. The “Corn plant response rating” value (corn; [4]) was 0, the “Corn plant response rating” value (corn; [7]) was 0 and the “Corn plant response rating” value (corn; [8]) was 0. The “Corn plant response rating” value (corn; [5]) was 0, the “Plant response rating, Crabgrass” value (crabgrass; [1]) was 2 and the “Crabgrass plant response rating” value (crabgrass; [6]) was 4. The “Plant response rating, Crabgrass” value (crabgrass; [2]) was 7, the “Crabgrass plant response rating” value (crabgrass; [3]) was 8 and the “Crabgrass plant response rating” value (crabgrass; [4]) was 7. For the same compound, the “Crabgrass plant response rating” value (crabgrass; [7]) was 8, the “Crabgrass plant response rating” value (crabgrass; [8]) was 8 and the “Crabgrass plant response rating” value (crabgrass; [5]) was 9. For the same compound, the “Plant response rating, Giant foxtail” value (giant foxtail; [1]) was 3, the “Giant foxtail plant response rating” value (giant foxtail; [6]) was 5 and the “Plant response rating, Giant foxtail” value (giant foxtail; [2]) was 9. For the same compound, the “Giant foxtail plant response rating” value (giant foxtail; [3]) was 10, the “Giant foxtail plant response rating” value (giant foxtail; [4]) was 9 and the “Giant foxtail plant response rating” value (giant foxtail; [7]) was 8. The “Giant foxtail plant response rating” value (giant foxtail; [8]) was 8, the “Giant foxtail plant response rating” value (giant foxtail; [5]) was 10 and the “Plant response rating, Morningglory” value (morningglory; [1]) was 3. For the same compound, the “Morningglory plant response rating” value (morningglory; [6]) was 3, the “Plant response rating, Morningglory” value (morningglory; [2]) was 0 and the “Morningglory plant response rating” value (morningglory; [3]) was 0. For the same compound, the “Morningglory plant response rating” value (morningglory; [4]) was 0, the “Morningglory plant response rating” value (morningglory; [7]) was 3 and the “Morningglory plant response rating” value (morningglory; [8]) was 4. The “Morningglory plant response rating” value (morningglory; [5]) was 0, the “Plant response rating, Redroot pigweed” value (pigweed; [1]) was 0 and the “Redroot pigweed plant response rating” value (pigweed; [6]) was 0. The “Plant response rating, Redroot pigweed” value (pigweed; [2]) was 2, the “Redroot pigweed plant response rating” value (pigweed; [3]) was 3 and the “Redroot pigweed plant response rating” value (pigweed; [4]) was 0. The “Redroot pigweed plant response rating” value (pigweed; [7]) was 0, the “Redroot pigweed plant response rating” value (pigweed; [8]) was 4 and the “Redroot pigweed plant response rating” value (pigweed; [5]) was 4. For the same compound, the “Plant response rating, Rape” value (rape; [1]) was 0, the “Rape plant response rating” value (rape; [6]) was 0 and the “Plant response rating, Rape” value (rape; [2]) was 0. The “Rape plant response rating” value (rape; [3]) was 0, the “Rape plant response rating” value (rape; [4]) was 0 and the “Rape plant response rating” value (rape; [7]) was 0. The “Rape plant response rating” value (rape; [8]) was 0, the “Rape plant response rating” value (rape; [5]) was 4 and the “Plant response rating, Soybean” value (soybean; [1]) was 3. The “Plant response rating, Soybean” value (soybean; [2]) was 0, the “Soybean plant response rating” value (soybean; [3]) was 0 and the “Soybean plant response rating” value (soybean; [4]) was 0. The “Soybean plant response rating” value (soybean; [7]) was 3, the “Soybean plant response rating” value (soybean; [8]) was 3 and the “Soybean plant response rating” value (soybean; [5]) was 0. The “Plant response rating, Sugarbeets” value (sugar beet; [1]) was 0, the “Plant response rating, Sugarbeets” value (sugar beet; [2]) was 0 and the “Sugarbeets plant response rating” value (sugar beet; [3]) was 4. For the same compound, the “Sugarbeets plant response rating” value (sugar beet; [4]) was 0, the “Sugarbeets plant response rating” value (sugar beet; [7]) was 0 and the “Sugarbeets plant response rating” value (sugar beet; [8]) was 0. For the same compound, the “Sugarbeets plant response rating” value (sugar beet; [5]) was 5, the “Plant response rating, Velvetleaf” value (velvetleaf; [1]) was 2 and the “Plant response rating, Velvetleaf” value (velvetleaf; [2]) was 0. The “Velvetleaf plant response rating” value (velvetleaf; [3]) was 0, the “Velvetleaf plant response rating” value (velvetleaf; [4]) was 0 and the “Velvetleaf plant response rating” value (velvetleaf; [7]) was 6. The “Velvetleaf plant response rating” value (velvetleaf; [8]) was 6, the “Velvetleaf plant response rating” value (velvetleaf; [5]) was 0 and the “Plant response rating, Wheat” value (wheat; [1]) was 0. For the same compound, the “Plant response rating, Wheat” value (wheat; [2]) was 2, the “Wheat plant response rating” value (wheat; [3]) was 3 and the “Wheat plant response rating” value (wheat; [4]) was 0. The “Wheat plant response rating” value (wheat; [7]) was 0, the “Wheat plant response rating” value (wheat; [8]) was 0 and the “Wheat plant response rating” value (wheat; [5]) was 8. For the same compound, the “Plant response rating, Wild oats” value (wild oat; [1]) was 0, the “Plant response rating, Wild oats” value (wild oat; [2]) was 4 and the “Wild oats plant response rating” value (wild oat; [3]) was 5. The “Wild oats plant response rating” value (wild oat; [4]) was 0, the “Wild oats plant response rating” value (wild oat; [7]) was 2 and the “Wild oats plant response rating” value (wild oat; [8]) was 3. For the same compound, the “Wild oats plant response rating” value (wild oat; [5]) was 8, the “Plant response rating, Nutsedge” value (purple nutsedge; [1]) was 0 and the “Nutsedge plant response rating” value (purple nutsedge; [6]) was 0. The “Plant response rating, Nutsedge” value (purple nutsedge; [2]) was 0, the “Nutsedge plant response rating” value (purple nutsedge; [3]) was 0 and the “Nutsedge plant response rating” value (purple nutsedge; [4]) was 0. For the same compound, the “Nutsedge plant response rating” value (purple nutsedge; [7]) was 0, the “Nutsedge plant response rating” value (purple nutsedge; [8]) was 0 and the “Nutsedge plant response rating” value (purple nutsedge; [5]) was 0.
